From paper PMC10817531, “Chlorinated Enyne Fatty Acid Amides from a Marine Cyanobacterium: Discovery of Taveuniamides L-M and Pharmacological Characterization of Taveuniamide F as a GPCR Antagonist with CNR1 Selectivity” (Marine Drugs, 2023)

What was measured:
Assay in all cases: PathHunter β-arrestin GpcrMAX assay
Assay type in all cases: cell-based
[1] = target: T1, ADCYAP1R1 (Homo sapiens, UniProt P41586)
T1 construct: purchased DiscoveRx (Eurofins) gpcrMAX PathHunter β-arrestin panel
Description: (§1) GpcrMAX panel biosensor assays were used to characterize taveuniamide F (4, 20 µM) (agonist and antagonist mode). The experiments were carried out by DiscoveRx Corporation (Fremont, CA, USA) as described before, using PathHunter β-arrestin enzyme fragment complementation (EFC) technology.

[2] = target: T2, ADRA1B (Homo sapiens, UniProt P35368)
T2 construct: purchased DiscoveRx (Eurofins) gpcrMAX PathHunter β-arrestin panel
Description: as §1

[3] = target: T3, ADRA2A (Homo sapiens, UniProt P08913)
T3 construct: purchased DiscoveRx (Eurofins) gpcrMAX PathHunter β-arrestin panel
T3 sequence (P08913 whole entry): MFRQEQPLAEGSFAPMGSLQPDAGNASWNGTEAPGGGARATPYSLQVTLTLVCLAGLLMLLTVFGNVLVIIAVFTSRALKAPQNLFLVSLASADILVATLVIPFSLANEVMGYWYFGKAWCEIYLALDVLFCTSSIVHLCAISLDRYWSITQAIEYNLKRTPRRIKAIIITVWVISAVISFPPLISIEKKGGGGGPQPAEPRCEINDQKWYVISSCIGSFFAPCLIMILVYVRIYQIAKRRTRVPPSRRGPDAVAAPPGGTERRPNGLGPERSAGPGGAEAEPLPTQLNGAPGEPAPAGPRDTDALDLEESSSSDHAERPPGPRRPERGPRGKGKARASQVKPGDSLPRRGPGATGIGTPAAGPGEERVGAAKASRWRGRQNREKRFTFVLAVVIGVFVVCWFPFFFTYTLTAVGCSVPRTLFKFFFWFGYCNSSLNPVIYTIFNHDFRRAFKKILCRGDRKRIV
Description: as §1

[4] = target: T4, ADRA2B (Homo sapiens, UniProt P18089)
T4 construct: purchased DiscoveRx (Eurofins) gpcrMAX PathHunter β-arrestin panel
Description: as §1

[5] = target: T5, ADRB1 (Homo sapiens, UniProt P08588)
T5 construct: purchased DiscoveRx (Eurofins) gpcrMAX PathHunter β-arrestin panel
T5 sequence (P08588 whole entry): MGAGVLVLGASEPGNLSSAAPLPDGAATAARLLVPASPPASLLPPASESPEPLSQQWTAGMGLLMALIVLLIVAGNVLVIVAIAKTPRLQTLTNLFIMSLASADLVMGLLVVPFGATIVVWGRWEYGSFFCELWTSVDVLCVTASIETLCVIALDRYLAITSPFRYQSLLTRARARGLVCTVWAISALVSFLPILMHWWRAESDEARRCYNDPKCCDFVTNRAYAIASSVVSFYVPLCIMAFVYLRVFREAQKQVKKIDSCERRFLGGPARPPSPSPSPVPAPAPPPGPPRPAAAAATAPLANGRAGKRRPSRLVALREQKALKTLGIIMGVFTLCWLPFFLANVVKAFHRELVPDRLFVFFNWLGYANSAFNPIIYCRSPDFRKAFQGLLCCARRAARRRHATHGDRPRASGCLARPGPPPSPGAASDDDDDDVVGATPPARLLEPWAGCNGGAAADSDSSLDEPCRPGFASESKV
Description: as §1

[6] = target: AVPR1A (Homo sapiens, UniProt P37288)
Description: as §1

[7] = target: C3AR1 (Homo sapiens, UniProt Q16581)
Description: as §1

[8] = target: CALCRL-RAMP3 (Homo sapiens, UniProt O60896+Q16602)
Description: as §1

[9] = target: T6, CCKBR (Homo sapiens, UniProt P32239)
T6 construct: purchased DiscoveRx (Eurofins) gpcrMAX PathHunter β-arrestin panel
Description: as §1

[10] = target: T7, CHRM3 (Homo sapiens, UniProt P20309)
T7 construct: purchased DiscoveRx (Eurofins) gpcrMAX PathHunter β-arrestin panel
Description: as §1

[11] = target: T8, CHRM5 (Homo sapiens, UniProt P08912)
T8 construct: purchased DiscoveRx (Eurofins) gpcrMAX PathHunter β-arrestin panel
Description: as §1

[12] = target: T9, CMKLR1 (Homo sapiens, UniProt Q99788)
T9 construct: purchased DiscoveRx (Eurofins) gpcrMAX PathHunter β-arrestin panel
Description: as §1

[13] = target: T10, CXCR1 (Homo sapiens, UniProt P25024)
T10 construct: purchased DiscoveRx (Eurofins) gpcrMAX PathHunter β-arrestin panel
T10 sequence (P25024 whole entry): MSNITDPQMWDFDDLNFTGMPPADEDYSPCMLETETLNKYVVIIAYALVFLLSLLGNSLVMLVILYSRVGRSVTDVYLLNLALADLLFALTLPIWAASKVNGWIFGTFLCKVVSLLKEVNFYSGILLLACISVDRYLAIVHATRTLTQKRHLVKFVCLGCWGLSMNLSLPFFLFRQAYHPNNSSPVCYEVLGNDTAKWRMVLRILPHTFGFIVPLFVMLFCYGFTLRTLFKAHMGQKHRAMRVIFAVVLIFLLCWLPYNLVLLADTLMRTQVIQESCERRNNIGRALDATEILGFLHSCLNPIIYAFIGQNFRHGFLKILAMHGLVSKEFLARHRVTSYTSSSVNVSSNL
Description: as §1

[14] = target: T11, CXCR4 (Homo sapiens, UniProt P61073)
T11 construct: purchased DiscoveRx (Eurofins) gpcrMAX PathHunter β-arrestin panel
Description: as §1

[15] = target: T12, CXCR7 (Homo sapiens, UniProt P25106)
T12 construct: purchased DiscoveRx (Eurofins) gpcrMAX PathHunter β-arrestin panel
Description: as §1

[16] = target: T13, DRD5 (Homo sapiens, UniProt P21918)
T13 construct: purchased DiscoveRx (Eurofins) gpcrMAX PathHunter β-arrestin panel
Description: as §1

[17] = target: T14, EDG1 (Homo sapiens, UniProt P21453)
T14 construct: purchased DiscoveRx (Eurofins) gpcrMAX PathHunter β-arrestin panel
Description: as §1

[18] = target: T15, EDG3 (Homo sapiens, UniProt Q99500)
T15 construct: purchased DiscoveRx (Eurofins) gpcrMAX PathHunter β-arrestin panel
Description: as §1

[19] = target: T16, EDG5 (Homo sapiens, UniProt O95136)
T16 construct: purchased DiscoveRx (Eurofins) gpcrMAX PathHunter β-arrestin panel
Description: as §1

[20] = target: T17, F2RL3 (Homo sapiens, UniProt Q96RI0)
T17 construct: purchased DiscoveRx (Eurofins) gpcrMAX PathHunter β-arrestin panel
Description: as §1

[21] = target: T18, FPRL1 (Homo sapiens, UniProt P25090)
T18 construct: purchased DiscoveRx (Eurofins) gpcrMAX PathHunter β-arrestin panel
Description: as §1

[22] = target: T19, FSHR (Homo sapiens, UniProt P23945)
T19 construct: purchased DiscoveRx (Eurofins) gpcrMAX PathHunter β-arrestin panel
Description: as §1

[23] = target: T20, GALR2 (Homo sapiens, UniProt O43603)
T20 construct: purchased DiscoveRx (Eurofins) gpcrMAX PathHunter β-arrestin panel
Description: as §1

[24] = target: T21, GLP1R (Homo sapiens, UniProt P43220)
T21 construct: purchased DiscoveRx (Eurofins) gpcrMAX PathHunter β-arrestin panel
Description: as §1

[25] = target: T22, GPR35 (Homo sapiens, UniProt Q9HC97)
T22 construct: purchased DiscoveRx (Eurofins) gpcrMAX PathHunter β-arrestin panel
T22 sequence (Q9HC97 whole entry): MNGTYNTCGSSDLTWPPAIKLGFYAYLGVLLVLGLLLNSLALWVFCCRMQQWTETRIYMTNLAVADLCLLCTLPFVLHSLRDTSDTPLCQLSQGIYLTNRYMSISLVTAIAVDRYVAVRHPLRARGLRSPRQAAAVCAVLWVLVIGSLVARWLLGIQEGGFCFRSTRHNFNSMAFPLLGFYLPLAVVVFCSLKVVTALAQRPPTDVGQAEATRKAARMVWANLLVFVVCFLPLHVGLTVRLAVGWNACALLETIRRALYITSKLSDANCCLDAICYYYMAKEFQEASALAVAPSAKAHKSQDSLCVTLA
Description: as §1

[26] = target: T23, GRPR (Homo sapiens, UniProt P30550)
T23 construct: purchased DiscoveRx (Eurofins) gpcrMAX PathHunter β-arrestin panel
T23 sequence (P30550 whole entry): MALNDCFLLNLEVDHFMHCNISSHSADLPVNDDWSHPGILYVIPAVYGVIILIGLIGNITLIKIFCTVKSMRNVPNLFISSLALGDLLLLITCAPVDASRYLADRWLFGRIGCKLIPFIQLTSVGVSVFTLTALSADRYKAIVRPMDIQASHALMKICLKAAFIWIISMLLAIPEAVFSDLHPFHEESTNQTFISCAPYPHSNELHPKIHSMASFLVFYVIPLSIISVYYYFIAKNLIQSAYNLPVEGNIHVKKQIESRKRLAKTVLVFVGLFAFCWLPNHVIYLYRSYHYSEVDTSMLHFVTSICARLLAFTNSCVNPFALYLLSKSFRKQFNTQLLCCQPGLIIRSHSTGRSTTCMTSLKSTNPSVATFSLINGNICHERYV
Description: as §1

[27] = target: T24, HRH2 (Homo sapiens, UniProt P25021)
T24 construct: purchased DiscoveRx (Eurofins) gpcrMAX PathHunter β-arrestin panel
Description: as §1

[28] = target: T25, HRH3 (Homo sapiens, UniProt Q9Y5N1)
T25 construct: purchased DiscoveRx (Eurofins) gpcrMAX PathHunter β-arrestin panel
Description: as §1

[29] = target: T26, HTR1B (Homo sapiens, UniProt P28222)
T26 construct: purchased DiscoveRx (Eurofins) gpcrMAX PathHunter β-arrestin panel
Description: as §1

[30] = target: T27, LHCGR (Homo sapiens, UniProt P22888)
T27 construct: purchased DiscoveRx (Eurofins) gpcrMAX PathHunter β-arrestin panel
T27 sequence (P22888 27-699): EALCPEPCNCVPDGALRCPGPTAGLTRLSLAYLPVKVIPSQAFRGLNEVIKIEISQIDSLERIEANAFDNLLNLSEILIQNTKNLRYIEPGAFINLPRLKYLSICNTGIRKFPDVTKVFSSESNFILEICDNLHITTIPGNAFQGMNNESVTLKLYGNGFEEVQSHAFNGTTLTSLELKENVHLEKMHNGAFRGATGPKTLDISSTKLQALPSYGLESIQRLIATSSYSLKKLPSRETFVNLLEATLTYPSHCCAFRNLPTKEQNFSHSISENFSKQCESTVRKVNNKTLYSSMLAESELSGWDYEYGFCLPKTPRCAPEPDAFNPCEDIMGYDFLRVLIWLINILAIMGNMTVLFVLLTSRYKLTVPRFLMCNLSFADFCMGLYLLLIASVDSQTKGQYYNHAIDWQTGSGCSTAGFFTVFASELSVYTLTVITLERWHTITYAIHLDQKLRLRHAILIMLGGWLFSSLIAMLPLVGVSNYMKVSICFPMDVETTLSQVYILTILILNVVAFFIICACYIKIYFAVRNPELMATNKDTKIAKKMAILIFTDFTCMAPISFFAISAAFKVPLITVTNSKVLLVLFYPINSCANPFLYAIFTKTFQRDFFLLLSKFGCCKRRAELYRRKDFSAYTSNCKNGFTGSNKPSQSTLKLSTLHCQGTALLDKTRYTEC
Description: as §1

[31] = target: T28, LTB4R (Homo sapiens, UniProt Q15722)
T28 construct: purchased DiscoveRx (Eurofins) gpcrMAX PathHunter β-arrestin panel
Description: as §1

[32] = target: T29, MCHR1 (Homo sapiens, UniProt Q99705)
T29 construct: purchased DiscoveRx (Eurofins) gpcrMAX PathHunter β-arrestin panel
T29 sequence (Q99705 whole entry): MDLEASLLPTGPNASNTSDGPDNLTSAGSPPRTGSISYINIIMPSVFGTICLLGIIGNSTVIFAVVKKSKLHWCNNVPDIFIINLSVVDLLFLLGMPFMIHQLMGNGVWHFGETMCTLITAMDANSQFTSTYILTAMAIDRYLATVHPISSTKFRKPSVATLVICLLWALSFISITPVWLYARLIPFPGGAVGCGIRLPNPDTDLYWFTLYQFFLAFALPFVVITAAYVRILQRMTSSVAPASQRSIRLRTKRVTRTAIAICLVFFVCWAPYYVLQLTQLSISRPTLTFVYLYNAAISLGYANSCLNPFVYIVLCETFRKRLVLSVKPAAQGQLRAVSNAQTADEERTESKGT
Description: as §1

[33] = target: T30, MRGPRX1 (Homo sapiens, UniProt Q96LB2)
T30 construct: purchased DiscoveRx (Eurofins) gpcrMAX PathHunter β-arrestin panel
Description: as §1

[34] = target: T31, MTNR1A (Homo sapiens, UniProt P48039)
T31 construct: purchased DiscoveRx (Eurofins) gpcrMAX PathHunter β-arrestin panel
T31 sequence (P48039 whole entry): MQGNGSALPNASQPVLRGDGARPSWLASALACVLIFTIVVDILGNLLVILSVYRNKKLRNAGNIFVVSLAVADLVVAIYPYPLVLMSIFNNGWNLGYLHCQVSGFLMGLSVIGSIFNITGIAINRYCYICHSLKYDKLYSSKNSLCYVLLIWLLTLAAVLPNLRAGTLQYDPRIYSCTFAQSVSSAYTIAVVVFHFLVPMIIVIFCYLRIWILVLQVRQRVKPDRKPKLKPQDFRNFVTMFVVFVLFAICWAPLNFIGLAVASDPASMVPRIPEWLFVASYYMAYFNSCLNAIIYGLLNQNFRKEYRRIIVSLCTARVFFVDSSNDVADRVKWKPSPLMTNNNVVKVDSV
Description: as §1

[35] = target: T32, NPFFR1 (Homo sapiens, UniProt Q9GZQ6)
T32 construct: purchased DiscoveRx (Eurofins) gpcrMAX PathHunter β-arrestin panel
Description: as §1

[36] = target: T33, NPY1R (Homo sapiens, UniProt P25929)
T33 construct: purchased DiscoveRx (Eurofins) gpcrMAX PathHunter β-arrestin panel
Description: as §1

[37] = target: T34, OPRD1 (Homo sapiens, UniProt P41143)
T34 construct: purchased DiscoveRx (Eurofins) gpcrMAX PathHunter β-arrestin panel
Description: as §1

[38] = target: T35, OPRL1 (Homo sapiens, UniProt P41146)
T35 construct: purchased DiscoveRx (Eurofins) gpcrMAX PathHunter β-arrestin panel
Description: as §1

[39] = target: T36, P2RY11 (Homo sapiens, UniProt Q96G91)
T36 construct: purchased DiscoveRx (Eurofins) gpcrMAX PathHunter β-arrestin panel
T36 sequence (Q96G91 whole entry, one chain of several): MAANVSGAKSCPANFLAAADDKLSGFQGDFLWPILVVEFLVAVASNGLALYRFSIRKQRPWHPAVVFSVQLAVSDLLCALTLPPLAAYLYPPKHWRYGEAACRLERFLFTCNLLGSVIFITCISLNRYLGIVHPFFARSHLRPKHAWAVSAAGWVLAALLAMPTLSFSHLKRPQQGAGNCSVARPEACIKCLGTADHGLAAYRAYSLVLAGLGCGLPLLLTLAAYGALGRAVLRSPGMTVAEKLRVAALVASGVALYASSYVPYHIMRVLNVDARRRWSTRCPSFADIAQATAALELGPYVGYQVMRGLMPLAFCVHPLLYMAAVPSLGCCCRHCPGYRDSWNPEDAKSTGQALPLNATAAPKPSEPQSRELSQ
Description: as §1

[40] = target: T37, P2RY6 (Homo sapiens, UniProt Q15077)
T37 construct: purchased DiscoveRx (Eurofins) gpcrMAX PathHunter β-arrestin panel
T37 sequence (Q15077 whole entry): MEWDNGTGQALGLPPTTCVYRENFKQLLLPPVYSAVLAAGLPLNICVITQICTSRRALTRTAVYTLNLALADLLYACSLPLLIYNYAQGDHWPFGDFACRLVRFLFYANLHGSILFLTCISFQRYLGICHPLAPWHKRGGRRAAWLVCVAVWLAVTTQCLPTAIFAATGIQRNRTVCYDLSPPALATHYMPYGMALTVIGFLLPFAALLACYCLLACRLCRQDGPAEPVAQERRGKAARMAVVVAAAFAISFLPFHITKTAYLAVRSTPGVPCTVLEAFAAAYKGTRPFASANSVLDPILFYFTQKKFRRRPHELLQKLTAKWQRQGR
Description: as §1

[41] = target: T38, PPYR1 (Homo sapiens, UniProt P50391)
T38 construct: purchased DiscoveRx (Eurofins) gpcrMAX PathHunter β-arrestin panel
T38 sequence (P50391 whole entry): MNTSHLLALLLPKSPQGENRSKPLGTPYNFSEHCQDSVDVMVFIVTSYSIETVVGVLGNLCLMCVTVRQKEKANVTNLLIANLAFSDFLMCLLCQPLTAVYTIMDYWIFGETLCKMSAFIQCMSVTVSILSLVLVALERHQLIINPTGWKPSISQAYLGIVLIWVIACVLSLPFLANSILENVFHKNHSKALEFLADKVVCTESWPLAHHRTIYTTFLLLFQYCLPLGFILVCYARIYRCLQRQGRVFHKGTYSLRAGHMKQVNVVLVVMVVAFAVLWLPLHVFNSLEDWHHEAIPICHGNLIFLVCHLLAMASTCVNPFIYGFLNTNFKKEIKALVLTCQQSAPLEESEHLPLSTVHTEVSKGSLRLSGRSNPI
Description: as §1

[42] = target: T39, PTGER4 (Homo sapiens, UniProt P35408)
T39 construct: purchased DiscoveRx (Eurofins) gpcrMAX PathHunter β-arrestin panel
T39 sequence (P35408 whole entry): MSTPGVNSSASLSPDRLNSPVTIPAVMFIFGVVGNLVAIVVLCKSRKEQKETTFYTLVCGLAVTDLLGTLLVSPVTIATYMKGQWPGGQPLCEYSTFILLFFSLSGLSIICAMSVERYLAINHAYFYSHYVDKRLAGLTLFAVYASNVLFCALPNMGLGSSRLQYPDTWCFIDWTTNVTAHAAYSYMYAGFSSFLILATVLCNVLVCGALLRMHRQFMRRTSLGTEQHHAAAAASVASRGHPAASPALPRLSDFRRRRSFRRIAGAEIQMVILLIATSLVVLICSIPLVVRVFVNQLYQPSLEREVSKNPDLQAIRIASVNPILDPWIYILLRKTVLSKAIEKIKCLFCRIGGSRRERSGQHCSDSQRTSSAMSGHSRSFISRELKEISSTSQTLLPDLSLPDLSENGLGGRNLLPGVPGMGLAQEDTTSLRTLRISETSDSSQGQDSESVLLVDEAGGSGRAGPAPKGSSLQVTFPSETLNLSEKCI
Description: as §1

[43] = target: T40, PTGIR (Homo sapiens, UniProt P43119)
T40 construct: purchased DiscoveRx (Eurofins) gpcrMAX PathHunter β-arrestin panel
Description: as §1

In the case of `CC(=O)N[C@@H](CCCC#C/C=C/Cl)CCCCCCC(Cl)Cl` [Compound 4, taveuniamide F], the inhibition at 20 µM [1] is reported as 16.5%, the inhibition at 20 µM [2] is reported as 22.9% and the inhibition at 20 µM [3] is reported as 42.3%. It also gave an inhibition at 20 µM [4] of 10.7%, an inhibition at 20 µM [5] of 52.7% and an inhibition at 20 µM [6] of 48.5%. The inhibition at 20 µM [7] was 10.3%, the inhibition at 20 µM [8] was 19.3% and the inhibition at 20 µM [9] was 10.2%. The inhibition at 20 µM [10] was 59.9%, the inhibition at 20 µM [11] was 31.6% and the inhibition at 20 µM [12] was 21.4%. It also gave an inhibition at 20 µM [13] of 15.3%, an inhibition at 20 µM [14] of 43.8% and an inhibition at 20 µM [15] of 3.6%. For the same molecule, the inhibition at 20 µM [16] was 2.7%, the inhibition at 20 µM [17] was 33.1% and the inhibition at 20 µM [18] was 21%. It also gave an inhibition at 20 µM [19] of 0.8%, an inhibition at 20 µM [20] of 59.2% and an inhibition at 20 µM [21] of 2.5%. For the same molecule, the inhibition at 20 µM [22] was 40.5%, the inhibition at 20 µM [23] was 23.1% and the inhibition at 20 µM [24] was 59.9%. The inhibition at 20 µM [25] was 27.1%, the inhibition at 20 µM [26] was 6.2% and the inhibition at 20 µM [27] was 24.1%. It also gave an inhibition at 20 µM [28] of 5%, an inhibition at 20 µM [29] of 33.9% and an inhibition at 20 µM [30] of 56.3%. The inhibition at 20 µM [31] was 4.6%, the inhibition at 20 µM [32] was 16.3% and the inhibition at 20 µM [33] was -21.3%. For the same molecule, the inhibition at 20 µM [34] was 20.2%, the inhibition at 20 µM [35] was 27.9% and the inhibition at 20 µM [36] was 3.4%. For the same molecule, the inhibition at 20 µM [37] was 7.2%, the inhibition at 20 µM [38] was 5.4% and the inhibition at 20 µM [39] was 8.2%. The inhibition at 20 µM [40] was 1.2%, the inhibition at 20 µM [41] was 50.7% and the inhibition at 20 µM [42] was 36.5%. It also gave an inhibition at 20 µM [43] of 60.2%.
